Data reported in article PMC11750672, “The in vivo metabolic pathway of Deg-AZM and in vitro investigations into the contribution of drug metabolizing enzymes and drug transporters in the drug interactions of Deg-AZM, a clinical-stage new transgelin agonist” (Frontiers in Pharmacology, 2025).

Legend:
[1] = system: CYP3A4; test: CYP induction (mRNA, qPCR) in human hepatocytes; assay type: in vitro ADME; conditions: for CYP3A4 induction, % of PC: PC rifampicin 20 μM
Text: (§1) After culture and complete induction, total mRNA was extracted by TRNzol RNA Extraction Kit (purchased from Tiangen Biochemical Technology Co., Ltd., Beijing). The RNA was reverse transcribed into cDNA according to the instructions of the Transcriptor First Strand cDNA Synthesis Kit (purchased from Roche, Switzerland). Using reverse transcribed cDNA as a template, amplifying the internal reference genes of β-Actin of the sample and target genes of CYP1A2, CYP2B6, and CYP3A4 respectively to compare the expression differences.

[2] = system: CYP1A2; test: CYP induction (mRNA, qPCR) in human hepatocytes; assay type: in vitro ADME; conditions: for CYP1A2 induction, % of PC: PC omeprazole 50 μM
Text: as §1

[3] = system: CYP2B6; test: CYP induction (mRNA, qPCR) in human hepatocytes; conditions: for CYP2B6 induction, % of PC: PC phenobarbital 1 mM
Text: as §1

[4] = system: inactivated monomeric enzyme; test: Recombinant CYPs phenotyping assay, inactivated enzyme control; assay type: in vitro ADME, human; conditions: control group with inactivated monomeric enzyme, 1.5 h
Method: (§2) Deg-AZM (1 μM) was treated with pooled NADPH (1 mM) and recombinant CYPs (rCYP1A2, rCYP2B6, rCYP2C8, rCYP2C9, rCYP2C19, rCYP2D6, and rCYP3A4, purchased from Research Institute for Liver Diseases Co. Ltd., Shanghai) at 25 pmol/mL for 90 min. The isoform-selective probe substrates served as positive controls (same as the positive controls in HLM phenotyping assays).

[5] = biological target: T1, rCYP3A4 (Homo sapiens, UniProt P08684); test: Recombinant CYPs phenotyping assay; assay type: in vitro ADME; conditions: 1 μM, 1.5 h
T1 construct: purchased Research Institute for Liver Diseases Co. Ltd., Shanghai
T1 sequence (P08684 whole entry): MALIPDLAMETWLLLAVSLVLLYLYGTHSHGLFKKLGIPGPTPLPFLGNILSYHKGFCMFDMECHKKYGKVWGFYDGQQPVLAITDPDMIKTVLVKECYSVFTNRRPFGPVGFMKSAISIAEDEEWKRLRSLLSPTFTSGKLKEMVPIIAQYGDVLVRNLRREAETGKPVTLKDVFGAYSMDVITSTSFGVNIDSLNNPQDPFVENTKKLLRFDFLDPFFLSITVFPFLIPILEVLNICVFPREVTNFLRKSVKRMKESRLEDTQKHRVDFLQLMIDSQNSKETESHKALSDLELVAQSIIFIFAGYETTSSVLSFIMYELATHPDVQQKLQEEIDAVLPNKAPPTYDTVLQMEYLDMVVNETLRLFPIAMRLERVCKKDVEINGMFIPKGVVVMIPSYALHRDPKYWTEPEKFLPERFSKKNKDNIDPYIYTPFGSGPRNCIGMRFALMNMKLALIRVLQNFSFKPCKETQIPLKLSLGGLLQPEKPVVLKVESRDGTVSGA
Method: as §2

[6] = Excretion and material balance in rats (urine, feces 0-24 h); assay type: in vivo; conditions: through the kidneys and urine
Method: The plasma samples at 0.167 h, 0.5 h, 3 h and 8 h after administration were obtained from the study of tissue distribution in rats ([Gu et al., 2024]). Urine, feces and bile samples at 0–24 h after administration were obtained from the excretion study of a single gavage administration of 25 mg/kg Deg-AZM in rats ([Gu et al., 2024]).
The types and proportions of metabolites in the excretion pathway were elucidated in this study. […] Based on the peak area in this study, the total amount of metabolites in urine and feces of rats was 0.589 times and 9.96 times that of the original form of Deg-AZM, respectively. The total amount of Deg-AZM excreted in its original form and various metabolites in urine and feces was 23.7% and 19.8% of the administered dose, respectively, with a material balance coefficient of 43.5%. Deg-AZM was mainly excreted in the form of its original form M0 (cumulative excretion fraction of 14.9%) and metabolite M2 (cumulative excretion fraction of 5.33%) through the kidneys and urine, and in the form of metabolite M1-2 (cumulative excretion fraction of 4.29%) and M2 (cumulative excretion fraction of 3.93%) through the intestines and feces. […] It is necessary to obtain standard samples of the main metabolites for accurate quantification or use isotope tracing techniques to further improve material balance research in the clinical stage.

[7] = 5 μM, hepatocyte batch LHuf 17905B
[8] = 25 μM, hepatocyte batch LHuf 17905B
[9] = 100 μM, hepatocyte batch LHuf 17905B
[10] = 5, 25, and 100 µM, three batches of human hepatocytes

## CCC1OC(=O)C(C)C(O)C(C)C(O)C(C)(O)CC(C)CN(C)C(C)C(O)C1(C)O (stereo not shown) [Deg-AZM, Deglycosylated azithromycin]
[1]; 5 μM, batch HUB
  CYP3A4 induction, % of PC: 2.15%
[1]; 5 μM, batch LHuf 17905B
  CYP3A4 induction, % of PC: 5.55%
[1]; 5 μM, batch MWB
  CYP3A4 induction, % of PC: 1.99%
[1]; 5 μM, hepatocyte batch HUB
  CYP3A4 mRNA induction, times of control group: 1.80
[1]; [7]
  CYP3A4 mRNA induction, times of control group: 2.30
[1]; 5 μM, hepatocyte batch MWB
  CYP3A4 mRNA induction, times of control group: 1.96
[1]; 25 μM, batch HUB
  CYP3A4 induction, % of PC: 3.06%
[1]; 25 μM, batch LHuf 17905B
  CYP3A4 induction, % of PC: 12.1%
[1]; 25 μM, batch MWB
  CYP3A4 induction, % of PC: 6.32%
[1]; 25 μM, hepatocyte batch HUB
  CYP3A4 mRNA induction, times of control group: 2.13
[1]; [8]
  CYP3A4 mRNA induction, times of control group: 3.84
[1]; 25 μM, hepatocyte batch MWB
  CYP3A4 mRNA induction, times of control group: 4.05
[1]; 100 μM, batch HUB
  CYP3A4 induction, % of PC: 13.5%
[1]; 100 μM, batch LHuf 17905B
  CYP3A4 induction, % of PC: 54.2%
[1]; 100 μM, batch MWB
  CYP3A4 induction, % of PC: 29.3%
[1]; 100 μM, hepatocyte batch HUB
  CYP3A4 mRNA induction, times of control group: 6.01
[1]; [9]
  CYP3A4 mRNA induction, times of control group: 13.7
[1]; 100 μM, hepatocyte batch MWB
  CYP3A4 mRNA induction, times of control group: 15.2
[1]; 5, 25, and 100 µM, three batches of primary human hepatocytes
  Induction effect on CYP3A4 (conclusion): has an inducing effect
[2]; 5 μM, batch HUB
  CYP1A2 induction, % of PC: −0.318%
[2]; 5 μM, batch LHuf 17905B
  CYP1A2 induction, % of PC: −0.507%
[2]; 5 μM, batch MWB
  CYP1A2 induction, % of PC: 0.0293%
[2]; 5 μM, hepatocyte batch HUB
  CYP1A2 mRNA induction, times of control group: 0.850
[2]; [7]
  CYP1A2 mRNA induction, times of control group: 0.721
[2]; 5 μM, hepatocyte batch MWB
  CYP1A2 mRNA induction, times of control group: 1.02
[2]; 25 μM, batch HUB
  CYP1A2 induction, % of PC: −0.349%
[2]; 25 μM, batch LHuf 17905B
  CYP1A2 induction, % of PC: −0.569%
[2]; 25 μM, batch MWB
  CYP1A2 induction, % of PC: −0.0814%
[2]; 25 μM, hepatocyte batch HUB
  CYP1A2 mRNA induction, times of control group: 0.835
[2]; [8]
  CYP1A2 mRNA induction, times of control group: 0.687
[2]; 25 μM, hepatocyte batch MWB
  CYP1A2 mRNA induction, times of control group: 0.948
[2]; 100 μM, batch HUB
  CYP1A2 induction, % of PC: 0.0545%
[2]; 100 μM, batch LHuf 17905B
  CYP1A2 induction, % of PC: −0.209%
[2]; 100 μM, batch MWB
  CYP1A2 induction, % of PC: −0.319%
[2]; 100 μM, hepatocyte batch HUB
  CYP1A2 mRNA induction, times of control group: 1.03
[2]; [9]
  CYP1A2 mRNA induction, times of control group: 0.885
[2]; 100 μM, hepatocyte batch MWB
  CYP1A2 mRNA induction, times of control group: 0.797
[2]; [10]
  Induction effect on CYP1A2 (conclusion): no induction effect
[3]; 5 μM, batch HUB
  CYP2B6 induction, % of PC: −0.466%
[3]; 5 μM, batch LHuf 17905B
  CYP2B6 induction, % of PC: 6.61%
[3]; 5 μM, batch MWB
  CYP2B6 induction, % of PC: 4.39%
[3]; 5 μM, hepatocyte batch HUB
  CYP2B6 mRNA induction, times of control group: 0.942
[3]; [7]
  CYP2B6 mRNA induction, times of control group: 1.61
[3]; 5 μM, hepatocyte batch MWB
  CYP2B6 mRNA induction, times of control group: 1.60
[3]; 25 μM, batch HUB
  CYP2B6 induction, % of PC: 0.0278%
[3]; 25 μM, batch LHuf 17905B
  CYP2B6 induction, % of PC: 5.00%
[3]; 25 μM, batch MWB
  CYP2B6 induction, % of PC: 6.09%
[3]; 25 μM, hepatocyte batch HUB
  CYP2B6 mRNA induction, times of control group: 1.00
[3]; [8]
  CYP2B6 mRNA induction, times of control group: 1.46
[3]; 25 μM, hepatocyte batch MWB
  CYP2B6 mRNA induction, times of control group: 1.83
[3]; 100 μM, batch HUB
  CYP2B6 induction, % of PC: 2.97%
[3]; 100 μM, batch LHuf 17905B
  CYP2B6 induction, % of PC: 19.8%
[3]; 100 μM, batch MWB
  CYP2B6 induction, % of PC: 24.3%
[3]; 100 μM, hepatocyte batch HUB
  CYP2B6 mRNA induction, times of control group: 1.37
[3]; [9]
  CYP2B6 mRNA induction, times of control group: 2.84
[3]; 100 μM, hepatocyte batch MWB
  CYP2B6 mRNA induction, times of control group: 4.33
[3]; [10]
  Induction effect on CYP2B6 (conclusion): has an induction effect
[4]
  Residual proportion of Deg-AZM: 107%
[5]; 25 pmol/mL CYP3A4 monomeric enzyme
  Average residual proportion of Deg-AZM: 75.9%
[5]; CYP3A4 monomeric enzyme
  Elimination proportion of Deg-AZM: greater than 15%
[6]
  Cumulative excretion fraction, urine: 14.9%
